We go through 26 compounds from US5523314A, “Compounds useful as hypoglycemic agents and for treating Alzheimer's disease” (priority 1994, dated 1996).

Where a name gives a salt, the structure may show the parent alone. Read-outs that look alike come from different tables or passages of the source.

For this test, the system named is blood glucose level. Briefly: Hypoglycemic activity in obese diabetic mice (Table 1). Format: in vivo, male viable yellow obese-diabetic mice. The note with it: for response vs control in vivo at 50 mg/kg: Mus musculus, ip. The procedure:
The hypoglycemic activity of the compounds of the present invention was determined by testing the efficacy of the compounds in vivo in male viable yellow obese-diabetic mice. The test procedure is described in detail below.
Test formulations were prepared by dissolving the test compound in a saline solution containing 2% Emulphor (a polyoxyethylated vegetable oil surfactant from GAP Corp.) to provide the dose level desired. Each test formulation was administered to six viable yellow obese-diabetic mice intraperitoneally at the beginning of the experiment. Blood glucose levels were determined immediately before the first dose and at 2 and 4 hours thereafter using glucose oxidase. A mean was taken of the 6 values obtained before the first dose and at the 2 and 4 hour intervals. In Table 1, Column 1 provides the example number of the test compound, Column 2 provides the dose level of compound tested, and Columns 3 and 4 provide a measurement of the test animal's blood glucose level 2 and 4 hours after test compound administration, respectively, as a percentage of the test animal' s pre-administration blood glucose level.

[1] abbreviates: 2 h, 50 mg/kg, intraperitoneal, 2 hrs, read-out: Percent of Initial Blood Glucose Level After 2 hrs.
The mark [2] stands for this setting: 4 h, 50 mg/kg, intraperitoneal, 4 hrs, read-out: Percent of Initial Blood Glucose Level After 4 hrs.
Setting [3] is: 50 mg/kg, intraperitoneal, 2 hrs.
[4] abbreviates: 50 mg/kg, intraperitoneal, 4 hrs.

Regarding `O=C1NC(=S)SC1=Cc1cccc(O)c1` [Example 11, 5-[(3-hydroxyphenyl)methylene]-2-thioxo-4-thiazolidinone], the response vs control in vivo at 50 mg/kg by setting is: under setting [1], 84 ± 3%; under setting [2], 85 ± 6%.
For the compound `O=C1NC(=S)SC1=Cc1ccc(F)cc1` [Example 13, 5-[(4-fluorophenyl)methylene]-2-thioxo-4-thiazolidinone], the response vs control in vivo at 50 mg/kg reads like this: under setting [1], 94 ± 4%; under setting [2], 88 ± 5%.
In the same order, the values of `O=C1NC(=S)SC1=Cc1c[nH]c2ccccc12` [Example 39, 5-[(1H-indol-3-yl)methylene]-2-thioxo-4-thiazolidinone] are 83 ± 4% and 76 ± 4%.
As to `COc1cc(C(C)=C2SC(=S)NC2=O)cc(OC)c1OC` [Example 19, 5-[(3,4,5-trimethoxyphenyl)methylmethylene]-2-thioxo-4-thiazolidinone], under setting [3], the “Percent of Initial Blood Glucose Level After 2 hrs.” value is reported as 85 ± 14%. Under setting [4], the “Percent of Initial Blood Glucose Level After 4 hrs.” value came to 75 ± 4%.
Turning to `CCCCOc1ccc(C=C2SC(=S)NC2=O)cc1OC` [Example 52, 5-[(3-methoxy-4-butoxyphenyl)methylene]-2-thioxo-4-thiazolidinone, sodium salt], for the setting “4 h, read-out: Percent of Initial Blood Glucose Level After 4 hrs., 50 mg/kg, intraperitoneal, 4 hrs”, the response vs control in vivo at 50 mg/kg came out at 61 ± 4%.
As to `O=C1NC(=S)SC1=Cc1ccccc1-c1ccccc1` [Example 29, 5-[[(1,1'-biphenyl)-2-yl]methylene]-2-thioxo-4-thiazolidinone], the response vs control in vivo at 50 mg/kg under setting [1] is 84 ± 5% and the response vs control in vivo at 50 mg/kg under setting [2] was determined as 77 ± 6%.
As for `O=C1NC(=S)SC1=Cc1ccc(Cl)c(Cl)c1` [Example 36, 5-[(3,4-dichlorophenyl)methylene]-2-thioxo-4-thiazolidinone], the response vs control in vivo at 50 mg/kg by setting is: under setting [1], 81 ± 7%; under setting [2], 90 ± 8%.
As to `CCCCOc1ccc(C=C2SC(=S)NC2=O)cc1` [5-[(4-butoxyphenyl)methylene]-2-thioxo-4-thiazolidinone], the “ability to lower blood glucose levels in mammals” value (compared to structurally similar compounds known in the art, in words) is reported as “surprising ability to lower blood glucose levels in mammals”.
Turning to `O=C1NC(=S)SC1=Cc1ccc([N+](=O)[O-])c(O)c1` [Example 43, 5-[(3-hydroxy-4-nitrophenyl)methylene]-2-thioxo-4-thiazolidinone], the response vs control in vivo at 50 mg/kg under setting [1] is 92 ± 7% and the response vs control in vivo at 50 mg/kg under setting [2] was determined as 88 ± 4%.
As for `O=C1NC(=S)SC1=Cc1ccc2c(c1)OCO2` [Example 2, 5-[(1,3-benzodioxol-5-yl)methylene]-2-thioxo-4-thiazolidinone], the response vs control in vivo at 50 mg/kg under setting [1] worked out at 96 ± 1% and the response vs control in vivo at 50 mg/kg under setting [2] worked out at 82 ± 3%.
In the same order, the values of `COc1ccc(C=C2SC(=S)NC2=O)c(OC)c1` [Example 12, 5-[(2,4-dimethoxyphenyl)methylene]-2-thioxo-4-thiazolidinone] are 90 ± 7% and 69 ± 6%.
Regarding `O=C1NC(=S)SC1=Cc1cccc(Cl)c1` [Example 23, 5-[(3-chlorophenyl)methylene]-2-thioxo-4-thiazolidinone], the response vs control in vivo at 50 mg/kg amounted to 74 ± 6% under setting [1] and 90 ± 6% under setting [2].
Take `O=C1NC(=S)SC1=Cc1cccs1` [Example 14, 5-[(2-thienyl)methylene]-2-thioxo-4-thiazolidinone]: the response vs control in vivo at 50 mg/kg reads like this: under setting [1], 84 ± 7%; under setting [2], 71 ± 8%.
Turning to `CC(=C1SC(=S)NC1=O)c1cccc(O)c1` [Example 44, 5-[(3-hydroxyphenyl)methylmethylene]-2-thioxo-4-thiazolidinone], the “Percent of Initial Blood Glucose Level After 2 hrs.” value under setting [3] came to 98 ± 4%. For the same compound, the “Percent of Initial Blood Glucose Level After 4 hrs.” value under setting [4] turned out to be 88 ± 5%.
With `Cc1cccc(C=C2SC(=S)NC2=O)c1` [Example 33, 5-[(3-methylphenyl)methylene]-2-thioxo-4-thiazolidinone], the response vs control in vivo at 50 mg/kg by setting is: under setting [1], 91 ± 6%; under setting [2], 86 ± 7%.
In the same order, the values of `CCCOc1ccc(C=C2SC(=S)NC2=O)cc1OCCC` [Example 51, 5-[(3,4-dipropoxyphenyl)methylene]-2-thioxo-4-thiazolidinone] are 89 ± 7% and 85 ± 8%.
As for `O=C1NC(=S)SC1=Cc1ccccc1[N+](=O)[O-]` [Example 9, 5-[(2-nitrophenyl)methylene]-2-thioxo-4-thiazolidinone], the response vs control in vivo at 50 mg/kg is 91 ± 8% under setting [1] and 83 ± 6% under setting [2].
As to `O=C1NC(=S)SC1=Cc1cccc([N+](=O)[O-])c1` [Example 10, 5-[(3-nitrophenyl)methylene]-2-thioxo-4-thiazolidinone], the response vs control in vivo at 50 mg/kg was 89 ± 4% under setting [1] and 80 ± 4% under setting [2].
In the same order, the values of `CCOc1ccc(C=C2SC(=S)NC2=O)cc1O` [Example 46, 5-[(3-hydroxy-4-ethoxyphenyl)methylene]-2-thioxo-4-thiazolidinone] are 79 ± 4% and 77 ± 5%.
In the case of `C=CCN1C(=O)C(=Cc2ccc(O)c(OC)c2)SC1=S` [Example 30, 5-[(3-methoxy-4-hydroxyphenyl)methylene]-3-(2-propenyl)-2-thioxo-4-thiazolidinone], the response vs control in vivo at 50 mg/kg runs as follows: under setting [1], 78 ± 7%; under setting [2], 81 ± 5%.
Turning to `O=C1NC(=S)SC1=Cc1ccc(C(=O)O)cc1` [Example 37, 4-[(2-thioxo-4-thiazolidinone)methylene]benzoic acid], the response vs control in vivo at 50 mg/kg runs as follows: under setting [1], 89 ± 4%; under setting [2], 80 ± 4%.
As to `COc1ccc(C=C2SC(=S)NC2=O)cc1O` [Example 40, 5-[(3-hydroxy-4-methoxyphenyl)methylene]-2-thioxo-4-thiazolidinone], the response vs control in vivo at 50 mg/kg runs as follows: under setting [1], 78 ± 5%; under setting [2], 72 ± 4%.
With `O=C1NC(=S)SC1=Cc1ccnc2ccccc12` [Example 3, 5-[(4-quinolinyl)methylene]-2-thioxo-4-thiazolidinone], the response vs control in vivo at 50 mg/kg is, setting by setting: under setting [1], 90 ± 10%; under setting [2], 73 ± 3%.
For the compound `O=C1NC(=S)SC1=Cc1ccccc1O` [Example 7, 5-[(2-hydroxyphenyl)methylene]-2-thioxo-4-thiazolidinone], the response vs control in vivo at 50 mg/kg runs as follows: under setting [1], 80 ± 4%; under setting [2], 91 ± 7%.
For the compound `CCCCOc1ccc(CC2SC(=S)NC2=O)cc1OC` (centres unmarked) [Example 54, 5-[(3-methoxy-4-butoxyphenyl)methyl]-2-thioxo-4-thiazolidinone], the response vs control in vivo at 50 mg/kg under setting [1] is 76 ± 7% and the response vs control in vivo at 50 mg/kg under setting [2] turned out to be 74 ± 6%.
Regarding `COc1ccc(C=C2SC(=S)NC2=O)cc1C` [Example 27, 5-[(3-methyl-4-methoxyphenyl)methylene]-2-thioxo-4-thiazolidinone], the response vs control in vivo at 50 mg/kg came out at 93 ± 3% under setting [1] and 84 ± 6% under setting [2].
